In BindingDB's records for patent US12391660 (Hangzhou Westan Pharmaceutical Technology Co., 2025):

target: Transient receptor potential cation channel subfamily A member 1 (Homo sapiens, UniProt O75762); test: FLIPR Assay of Inhibitory Activity on Human TRPA1
Method: Table 3.1: The cell analysis plate was placed in an FLIPR instrument ([…]), and the compound in the compound plate was added to the corresponding hole on the cell analysis plate (First addition) via an automatic program, and the calcium ion fluorescence signal was recorded to determine whether the compound had agonistic activity. After 10 minutes, CaCl2 (Second addition) was added a final concentration of 3 mM to each well to stimulate intracellular calcium flux signals. Ca++-dependent fluorescence signal was monitored continuously at 538 nm wavelength to analyze the inhibitory activity of the compounds.

Sequence of Transient receptor potential cation channel subfamily A member 1 (O75762 whole entry): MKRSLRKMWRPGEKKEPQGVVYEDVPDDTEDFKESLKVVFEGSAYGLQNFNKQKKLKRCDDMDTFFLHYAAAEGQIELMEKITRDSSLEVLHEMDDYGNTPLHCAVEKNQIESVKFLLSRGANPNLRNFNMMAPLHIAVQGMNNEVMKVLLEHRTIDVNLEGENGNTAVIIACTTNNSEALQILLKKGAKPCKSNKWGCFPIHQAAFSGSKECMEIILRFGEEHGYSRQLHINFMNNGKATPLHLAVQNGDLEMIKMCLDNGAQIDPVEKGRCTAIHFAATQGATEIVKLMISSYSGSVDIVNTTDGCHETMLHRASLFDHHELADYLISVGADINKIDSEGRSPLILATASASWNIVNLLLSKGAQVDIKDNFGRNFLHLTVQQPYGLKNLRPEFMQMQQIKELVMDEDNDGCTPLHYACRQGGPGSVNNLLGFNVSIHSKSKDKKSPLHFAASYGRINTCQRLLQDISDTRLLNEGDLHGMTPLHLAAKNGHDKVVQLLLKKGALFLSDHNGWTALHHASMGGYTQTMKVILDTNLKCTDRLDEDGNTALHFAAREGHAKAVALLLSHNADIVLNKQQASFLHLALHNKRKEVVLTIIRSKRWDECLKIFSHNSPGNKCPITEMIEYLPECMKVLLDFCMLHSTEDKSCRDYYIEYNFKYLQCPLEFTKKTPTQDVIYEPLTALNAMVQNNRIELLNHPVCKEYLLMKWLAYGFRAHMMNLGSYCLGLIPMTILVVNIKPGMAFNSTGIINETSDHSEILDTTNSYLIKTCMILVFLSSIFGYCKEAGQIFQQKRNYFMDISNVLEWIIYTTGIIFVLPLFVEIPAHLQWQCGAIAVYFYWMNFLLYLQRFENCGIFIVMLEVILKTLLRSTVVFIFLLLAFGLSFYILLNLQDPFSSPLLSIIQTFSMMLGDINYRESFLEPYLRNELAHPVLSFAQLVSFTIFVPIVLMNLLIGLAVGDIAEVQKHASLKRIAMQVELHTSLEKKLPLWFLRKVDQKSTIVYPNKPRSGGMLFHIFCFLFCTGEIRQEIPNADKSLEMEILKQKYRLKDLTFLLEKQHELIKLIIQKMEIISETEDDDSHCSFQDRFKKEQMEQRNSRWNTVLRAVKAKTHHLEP

Row | IC50 | Compound
1 | 875 nM | O=C(N1CCN(c2ccc(C(F)(F)F)nn2)CC1)C1(Nc2ccc([N+](=O)[O-])cc2)CCCC1 [US12391660, Compound 21]
2 | 280 nM | CN(c1ccc(C#N)cc1)C1(C(=O)N2CCC(C(C)(C)C)CC2)CCCC1 [US12391660, Compound 44]
3 | 2870 nM | Cn1cc(OC2(C(=O)N3CCN(c4ccc(C(F)(F)F)cn4)CC3)CCCC2)nc1C#N [US12391660, Compound 61]
4 | 56 nM | O=C(N1CCN(c2cccc(C(F)(F)F)n2)CC1)C1(Nc2ccc(Cl)cc2)CCCC1 [US12391660, Compound 20]
